Measured values published in ChEMBL document CHEMBL3046559, “Sterile oat (Avena sterilis L.) cross-resistance profile to ACCase-inhibiting herbicides in Greece” (2012).

Key:
Assay type in all cases: functional
[1] = tested on: Avena sterilis; assay: Herbicidal activity against Avena sterilis accession P18 assessed as weed survival at 1 times field recommended herbicide dose
[2] = tested on: Avena sterilis; assay: Herbicidal activity against Avena sterilis accession P17 assessed as weed survival at 1 times field recommended herbicide dose
[3] = tested on: Avena sterilis; assay: Herbicidal activity against Avena sterilis accession P15 assessed as weed survival at 1 times field recommended herbicide dose
[4] = tested on: Avena sterilis; assay: Herbicidal activity against Avena sterilis accession P14 assessed as weed survival at 1 times field recommended herbicide dose
[5] = tested on: Avena sterilis; assay: Herbicidal activity against Avena sterilis accession P11 assessed as weed survival at 1 times field recommended herbicide dose
[6] = tested on: Avena sterilis; assay: Herbicidal activity against Avena sterilis accession P21S assessed as weed survival at 1/32 times field recommended herbicide dose
[7] = tested on: Avena sterilis; assay: Herbicidal activity against Avena sterilis accession P06S assessed as weed survival at 1/32 times field recommended herbicide dose
[8] = tested on: Avena sterilis; assay: Herbicidal activity against Avena sterilis accession P22 assessed as weed survival at 32 times field recommended herbicide dose
[9] = tested on: Avena sterilis; assay: Herbicidal activity against Avena sterilis accession P20 assessed as weed survival at 32 times field recommended herbicide dose
[10] = tested on: Avena sterilis; assay: Herbicidal activity against Avena sterilis accession P18 assessed as weed survival at 32 times field recommended herbicide dose
[11] = tested on: Avena sterilis; assay: Herbicidal activity against Avena sterilis accession P02 assessed as weed survival at 1 times field recommended herbicide dose
[12] = tested on: Avena sterilis; assay: Herbicidal activity against Avena sterilis accession P01 assessed as weed survival at 1 times field recommended herbicide dose
[13] = tested on: Avena sterilis; assay: Herbicidal activity against Avena sterilis accession P21S assessed as induction of weed mortality
[14] = tested on: Avena sterilis; assay: Herbicidal activity against Avena sterilis accession P19S assessed as induction of weed mortality
[15] = tested on: Avena sterilis; assay: Herbicidal activity against Avena sterilis accession P13S assessed as induction of weed mortality
[16] = tested on: Avena sterilis; assay: Herbicidal activity against Avena sterilis accession P22 assessed as induction of weed mortality
[17] = tested on: Avena sterilis; assay: Herbicidal activity against Avena sterilis accession P11 assessed as induction of weed mortality
[18] = tested on: Avena sterilis; assay: Herbicidal activity against Avena sterilis accession P08 assessed as induction of weed mortality
[19] = tested on: Avena sterilis; assay: Herbicidal activity against Avena sterilis accession P04 assessed as induction of weed mortality
[20] = tested on: Avena sterilis; assay: Herbicidal activity against Avena sterilis accession P05 assessed as induction of weed mortality
[21] = tested on: Avena sterilis; assay: Herbicidal activity against Avena sterilis accession P01 assessed as induction of weed mortality
[22] = tested on: Avena sterilis; assay: Herbicidal activity against Avena sterilis accession P17 assessed as weed survival at 8 times field recommended herbicide dose
[23] = tested on: Avena sterilis; assay: Herbicidal activity against Avena sterilis accession P16 assessed as weed survival at 8 times field recommended herbicide dose
[24] = tested on: Avena sterilis; assay: Herbicidal activity against Avena sterilis accession P15 assessed as weed survival at 8 times field recommended herbicide dose
[25] = tested on: Avena sterilis; assay: Herbicidal activity against Avena sterilis accession P16 assessed as weed survival at 32 times field recommended herbicide dose
[26] = tested on: Avena sterilis; assay: Herbicidal activity against Avena sterilis accession P11 assessed as weed survival at 32 times field recommended herbicide dose
[27] = tested on: Avena sterilis; assay: Herbicidal activity against Avena sterilis accession P08 assessed as weed survival at 32 times field recommended herbicide dose
[28] = tested on: Avena sterilis; assay: Herbicidal activity against Avena sterilis accession P03 assessed as weed survival at 32 times field recommended herbicide dose
[29] = tested on: Avena sterilis; assay: Herbicidal activity against Avena sterilis accession P01 assessed as weed survival at 32 times field recommended herbicide dose
[30] = tested on: Avena sterilis; assay: Herbicidal activity against Avena sterilis accession P13S assessed as weed survival at 1/16 times field recommended herbicide dose
[31] = tested on: Avena sterilis; assay: Herbicidal activity against Avena sterilis accession P22 assessed as weed survival at 16 times field recommended herbicide dose
[32] = tested on: Avena sterilis; assay: Herbicidal activity against Avena sterilis accession P18 assessed as weed survival at 16 times field recommended herbicide dose
[33] = tested on: Avena sterilis; assay: Herbicidal activity against Avena sterilis accession P17 assessed as weed survival at 16 times field recommended herbicide dose
[34] = tested on: Avena sterilis; assay: Herbicidal activity against Avena sterilis accession P11 assessed as weed survival at 16 times field recommended herbicide dose
[35] = tested on: Avena sterilis; assay: Herbicidal activity against Avena sterilis accession P08 assessed as weed survival at 16 times field recommended herbicide dose
[36] = tested on: Avena sterilis; assay: Herbicidal activity against Avena sterilis accession P07 assessed as weed survival at 16 times field recommended herbicide dose
[37] = tested on: Avena sterilis; assay: Herbicidal activity against Avena sterilis accession P05 assessed as weed survival at 16 times field recommended herbicide dose
[38] = tested on: Avena sterilis; assay: Herbicidal activity against Avena sterilis accession P03 assessed as weed survival at 16 times field recommended herbicide dose
[39] = tested on: Avena sterilis; assay: Herbicidal activity against Avena sterilis accession P02 assessed as weed survival at 16 times field recommended herbicide dose
[40] = tested on: Avena sterilis; assay: Herbicidal activity against Avena sterilis accession P01 assessed as weed survival at 16 times field recommended herbicide dose
[41] = tested on: Avena sterilis; assay: Herbicidal activity against Avena sterilis accession P21S assessed as weed survival at 1/8 times field recommended herbicide dose
[42] = tested on: Avena sterilis; assay: Herbicidal activity against Avena sterilis accession P19S assessed as weed survival at 1/8 times field recommended herbicide dose
[43] = tested on: Avena sterilis; assay: Herbicidal activity against Avena sterilis accession P10S assessed as weed survival at 1/8 times field recommended herbicide dose
[44] = tested on: Avena sterilis; assay: Herbicidal activity against Avena sterilis accession P06S assessed as weed survival at 1/8 times field recommended herbicide dose
[45] = tested on: Avena sterilis; assay: Herbicidal activity against Avena sterilis accession P11 assessed as weed survival at 8 times field recommended herbicide dose
[46] = tested on: Avena sterilis; assay: Herbicidal activity against Avena sterilis accession P08 assessed as weed survival at 8 times field recommended herbicide dose
[47] = tested on: Avena sterilis; assay: Herbicidal activity against Avena sterilis accession P02 assessed as weed survival at 8 times field recommended herbicide dose
[48] = tested on: Avena sterilis; assay: Herbicidal activity against Avena sterilis accession P21S assessed as weed survival at 1/4 times field recommended herbicide dose
[49] = tested on: Avena sterilis; assay: Herbicidal activity against Avena sterilis accession P20 assessed as weed survival at 4 times field recommended herbicide dose
[50] = tested on: Avena sterilis; assay: Herbicidal activity against Avena sterilis accession P17 assessed as weed survival at 4 times field recommended herbicide dose
[51] = tested on: Avena sterilis; assay: Herbicidal activity against Avena sterilis accession P18 assessed as weed survival at 4 times field recommended herbicide dose
[52] = tested on: Avena sterilis; assay: Herbicidal activity against Avena sterilis accession P16 assessed as weed survival at 4 times field recommended herbicide dose
[53] = tested on: Avena sterilis; assay: Herbicidal activity against Avena sterilis accession P15 assessed as weed survival at 4 times field recommended herbicide dose
[54] = tested on: Avena sterilis; assay: Herbicidal activity against Avena sterilis accession P11 assessed as weed survival at 4 times field recommended herbicide dose
[55] = tested on: Avena sterilis; assay: Herbicidal activity against Avena sterilis accession P09 assessed as weed survival at 4 times field recommended herbicide dose
[56] = tested on: Avena sterilis; assay: Herbicidal activity against Avena sterilis accession P06S assessed as weed survival at 1 times field recommended herbicide dose
[57] = tested on: Avena sterilis; assay: Herbicidal activity against Avena sterilis accession P02 assessed as weed survival at 4 times field recommended herbicide dose
[58] = tested on: Avena sterilis; assay: Herbicidal activity against Avena sterilis accession P22 assessed as weed survival at 1 times field recommended herbicide dose

C#CCOC(=O)[C@@H](C)Oc1ccc(Oc2ncc(Cl)cc2F)cc1 [CLODINAFOP PROPARGYL]
Survival [1]: 80%
Survival [2]: 97%
Survival [3]: 100%
Survival [4]: 97%
Survival [5]: 100%
Survival [6]: 97%
Survival [7]: 100%
Survival [8]: 0%
Survival [9]: 27%
Survival [10]: 20%
Survival [11]: 97%
Survival [12]: 97%
GR50 [13]: 11 gAi/ha
GR50 [14]: 29 gAi/ha
GR50 [15]: 5 gAi/ha
GR50 [16]: 122 gAi/ha
GR50 [17]: >1312 gAi/ha
GR50 [18]: >1312 gAi/ha
GR50 [19]: >1312 gAi/ha
GR50 [20]: 180 gAi/ha
GR50 [21]: 1053 gAi/ha
Survival [22]: 40%
Survival [23]: 20%
Survival [24]: 100%
Survival [25]: 0%
Survival [26]: 93%
Survival [27]: 67%
Survival [28]: 73%
Survival [29]: 40%
Survival [30]: 70%
Survival [31]: 0%
Survival [32]: 40%
Survival [33]: 27%
Survival [34]: 97%
Survival [35]: 73%
Survival [36]: 0%
Survival [37]: 13%
Survival [38]: 87%
Survival [39]: 93%
Survival [40]: 70%
Survival [41]: 77%
Survival [42]: 97%
Survival [43]: 77%
Survival [44]: 80%
Survival [45]: 100%
Survival [46]: 93%
Survival [47]: 97%
Survival [48]: 60%
Survival [49]: 73%
Survival [50]: 67%
Survival [51]: 80%
Survival [52]: 50%
Survival [53]: 100%
Survival [54]: 97%
Survival [55]: 20%
Survival [56]: 0%
Survival [57]: 100%
Survival [58]: 90%
